From ChEMBL document CHEMBL2157960, “Novel cyanocombretastatins as potent tubulin polymerisation inhibitors” (Bioorg Med Chem Lett, 2012)

Columns and labels:
K562 = assay: Antiproliferative activity against human K562 cells by MTT assay; assay type: functional, cell-based
MCF7 = assay: Cytotoxicity against human MCF7 cells; assay type: functional, cell-based
MDA-MB-468 = assay: Antiproliferative activity against human MDA-MB-468 cells expressing NQO1 by MTT assay; assay type: functional, cell-based
Tubulin = Tubulin (Sus scrofa, UniProt P02554+P02550); assay: Inhibition of pig tubulin polymerization by spectrophotometry; assay type: protein assay

Structure (SMILES)	IC50 (K562)	IC50 (MCF7)	IC50 (MDA-MB-468)	IC50 (Tubulin)
COc1ccc(/C=C\c2cc(OC)c(OC)c(OC)c2)cc1F	7 nM			
COc1ccc(/C=C/c2cc(OC)c(OC)c(OC)c2)cc1B(O)O		470000 nM		
COc1ccc(/C=C/c2cc(OC)c(OC)c(OC)c2)cc1F	> 2500 nM			
COc1ccc(/C=C/c2cc(OC)c(OC)c(OC)c2)cc1Br	7830 nM			
COc1ccc(/C=C(/C#N)c2cc(OC)c(OC)c(OC)c2)cc1F	6.7 nM		4.1 nM	4200 nM
COc1ccc(/C=C(\C#N)c2cc(OC)c(OC)c(OC)c2)cc1F	18.7 nM		20.3 nM	18500 nM
COc1ccc(/C=C(\C#N)c2cc(OC)c(OC)c(OC)c2)cc1Br	49.5 nM		70.6 nM	35600 nM
COc1ccc(/C=C(\C#N)c2cc(OC)c(OC)c(OC)c2)cc1I	42.6 nM		85.3 nM	43800 nM
C#Cc1cc(/C=C(\C#N)c2cc(OC)c(OC)c(OC)c2)ccc1OC	30.2 nM		46.5 nM	25300 nM
COc1ccc(/C=C(\C#N)c2cc(OC)c(OC)c(OC)c2)cc1B(O)O	20.4 nM		35.7 nM	17400 nM
COc1ccc(/C=C\c2cc(OC)c(OC)c(OC)c2)cc1O [COMBRETASTATIN A4]	2.3 nM		3.1 nM	
